Measurements from PMC6269003, “Two New Coumarins from Micromelum falcatum with Cytotoxicity and Brine Shrimp Larvae Toxicity” (Molecules, 2012).
≈ marks a conversion by molar mass, not a printed value.

Assays:
[1] = test system: lung cancer (HvEvc) cell line; assay: antiproliferative MTT assay, HvEvc; type: cell-based; conditions: MTT method, 72 h
Protocol: (§1) Antiproliferative activities of compounds were evaluated by the MTT method using mammary cancer (F10) and lung cancer (HvEvc) cell lines. In MTT assay, the cell suspensions (200 μL) at a density of 1 × 10^5 cells mL^−1 were plated in 96-well microtiter plates and incubated for 24 h at 37 °C in a humidified incubator at 5% CO2. The tested compound solution (2 μL in DMSO) at different concentrations was added to each well and further incubated for 72 h in the same condition. Then, the MTT solution (50 μL) was added to each well and incubated for 4 h. The old medium (150 μL) containing MTT was then gently replaced by DMSO. Absorbance was then determined on a Spectra Max Plus plate reader at 490 nm.

in vivo = conditions: brine shrimp, in vivo, other: larvae exposed in sea water in 96 well plate, LC50 against brine shrimp larvae; 96 well plates assay
Protocol: (§2) According to the method described by Wanyoike, brine shrimp eggs (Ocean Star International, Inc., USA) were hatched in a large beaker containing natural sea water (South China Sea) and they were cultured at room temperature for 48 h. With the help of a light source, the larvae grouped together on one side of the vessel and were easily collected for the assay. […] Each test was processed in triplicate with approximate ten larvae. Brine shrimps were counted under a magnifying glass after 24 h of incubation and maintaining the 96 well plates under illumination. The controls were prepared in the same manner except that the test samples were omitted.

brine shrimp larvae = assay: in vivo; conditions: for LC50 against brine shrimp larvae: 96 well plates assay; for LD50 (brine shrimp): brine shrimp larvae, 96 well plates, 24 h incubation
Protocol: as §2

[2] = test system: mammary cancer (F10) cell line; assay: antiproliferative MTT assay, F10; type: cell-based; conditions: MTT method, 72 h
Protocol: as §1

[3] = test system: P-388 lymphocytic leukemia; parameters: method as in PMID 490172; conditions: mice, 10 mg/Kg; cited from earlier work
Lewis lung carcinoma = test system: Lewis lung carcinoma; parameters: method as in PMID 490172; conditions: mice, 1.25 mg/Kg; cited from earlier work
[4] = parameters: method as in PMID 10378778; conditions: cited from earlier work
[5] = test system: P-388 lymphocytic leukemia; parameters: method as in doi:10.1021/jo00150a028; conditions: in vitro; cited from earlier work

For COc1ccc2ccc(=O)oc2c1/C=C/C(CO)COC(=O)CC(C)C (stereo not shown) [Compound 1, 7-Methoxy-8-(2-hydroxmethyl-1-O-isovaleryl-4-butenyl)coumarin], the IC50 [1] was 35.7 µg/mL (≈ 99.1 µM), the LC50 at 24 h (in vivo) was 6.8 µg/mL (≈ 18.9 µM) and the “LC50 against brine shrimp larvae” value (brine shrimp larvae) was under 10 µM. The “LD50 (brine shrimp)” value (brine shrimp larvae) was 6.8 µg/mL.

With C=C(C)C(OC1OC(CO)C(O)C(O)C1O)C(O)c1c(OC)ccc2ccc(=O)oc12 (stereo not drawn) [Compound 2, 7-Methoxy-8-(1-hydroxy-2-O-β-glucopyranosyl-3-methyl-4-butene-1-yl)coumarin] the IC50 [2] was 23.6 µg/mL (≈ 53.8 µM), the IC50 [1] was 68.5 µg/mL (≈ 156 µM) and the LC50 at 24 h (in vivo) was under 500 µg/mL. The “LD50 (brine shrimp)” value (brine shrimp larvae) was 29.1 µg/mL.

For COc1cc2oc(=O)ccc2cc1C=O [Compound 4, 6-formyl-7-methoxycoumarin], the “LD50 (brine shrimp)” value (brine shrimp larvae) was over 500 µg/mL.

With COc1ccc2ccc(=O)oc2c1C(C=O)=C(C)C [Compound 5, murralongin] the “LD50 (brine shrimp)” value (brine shrimp larvae) was over 500 µg/mL.

For COc1ccc2ccc(=O)oc2c1/C=C/C(C)(C)O [Compound 6, murraol], the “IC50 (HvEvc)” value [1] was 172.5 µg/mL (≈ 663 µM), the “LC50 against brine shrimp larvae” value (brine shrimp larvae) was under 500 µM and the “LD50 (brine shrimp)” value (brine shrimp larvae) was 199.3 µg/mL.

In the case of C=C(C)C(CO)c1c(OC)ccc2ccc(=O)oc12 (stereo not shown) [Compound 10, isomurralonginol], the “IC50 (HvEvc)” value [1] is reported as 72.6 µg/mL (≈ 279 µM), the “LC50 against brine shrimp larvae” value (brine shrimp larvae) is reported as under 500 µM and the “LD50 (brine shrimp)” value (brine shrimp larvae) is reported as 50.6 µg/mL.

In the case of C=C(C)C(O)C(OC)c1c(OC)ccc2ccc(=O)oc12 (stereo not shown) [Compound 11, murracarpin], the “IC50 (HvEvc)” value [1] is reported as 124.3 µg/mL (≈ 428 µM), the “LC50 against brine shrimp larvae” value (brine shrimp larvae) is reported as under 500 µM and the “LD50 (brine shrimp)” value (brine shrimp larvae) is reported as 158.5 µg/mL.

For COc1cc2oc(=O)ccc2cc1[C@@H]1OC(=O)[C@@]2(C)O[C@@H]12 [micromelin], the T/C [3] is listed as 149% and the T/C (Lewis lung carcinoma) is listed as 228%.

For C=C(C)[C@H](O)[C@@H](O)c1c(OC)ccc2ccc(=O)oc12 [minumicrolin], the anti-tumor promoting activity [4] is listed as “valuable anti-tumor promoting agents”.

For C=C(C)[C@@H](O)[C@@H](O)c1c(OC)ccc2ccc(=O)oc12 [murrangatin], the anti-tumor promoting activity [4] is listed as “valuable anti-tumor promoting agents”.

For (E)-osthenone [Compound 9], the “LD50 (brine shrimp)” value (brine shrimp larvae) was over 500 µg/mL.

For arscotin [Compound 7], the “LC50 against brine shrimp larvae” value (brine shrimp larvae) was under 500 µM and the “LD50 (brine shrimp)” value (brine shrimp larvae) was 118.5 µg/mL.

With methoxymicrominutinin [Compound 13] the “LD50 (brine shrimp)” value (brine shrimp larvae) was over 500 µg/mL.

With microfalcatin isovalerate [Compound 14] the “IC50 (F10)” value [2] was 112.0 µg/mL.

For microminutin [Compound 3], the “IC50 (F10)” value [2] was 82.9 µg/mL, the “LC50 against brine shrimp larvae” value (brine shrimp larvae) was under 500 µM and the “LD50 (brine shrimp)” value (brine shrimp larvae) was 107.3 µg/mL. The ED50 [5] was 3.7 µg/mL.

In the case of microminutinin [Compound 12], the “LD50 (brine shrimp)” value (brine shrimp larvae) is reported as over 500 µg/mL.

For murralonginol [Compound 8], the “LD50 (brine shrimp)” value (brine shrimp larvae) was over 500 µg/mL.
